In the NIST ThermoML archive (doi:10.1021/je900722m):

Assay: xn = mol fraction of the nth substance listed
Details: 101 kPa, Liquid

CC(C)CO [2-methyl-1-propanol] + CCCCO
Details | mass density [kg/m3] | viscosity [mPa·s]
303.15 K, x2 = 0.101 | 794.896 | 3.447
303.15 K, x2 = 0.2029 | 795.74 | 3.443
303.15 K, x2 = 0.3008 | 796.558 | 3.389
303.15 K, x2 = 0.4 | 797.382 | 3.313
303.15 K, x2 = 0.5 | 798.209 | 3.237
303.15 K, x2 = 0.5999 | 799.026 | 3.166
303.15 K, x2 = 0.6999 | 799.838 | 3.102
303.15 K, x2 = 0.7993 | 800.635 | 3.04
303.15 K, x2 = 0.8995 | 801.426 | 2.971
308.15 K, x2 = 0.101 | 790.969 | 2.987
308.15 K, x2 = 0.2029 | 791.819 | 2.983
308.15 K, x2 = 0.3008 | 792.643 | 2.939
308.15 K, x2 = 0.4 | 793.476 | 2.871
308.15 K, x2 = 0.5 | 794.307 | 2.804
308.15 K, x2 = 0.5999 | 795.132 | 2.752
308.15 K, x2 = 0.6999 | 795.953 | 2.708
308.15 K, x2 = 0.7993 | 796.757 | 2.669
308.15 K, x2 = 0.8995 | 797.554 | 2.62
313.15 K, x2 = 0.101 | 786.977 | 2.591
313.15 K, x2 = 0.2029 | 787.84 | 2.587
313.15 K, x2 = 0.3008 | 788.67 | 2.562
313.15 K, x2 = 0.4 | 789.511 | 2.511
313.15 K, x2 = 0.5 | 790.349 | 2.462
313.15 K, x2 = 0.5999 | 791.184 | 2.424
313.15 K, x2 = 0.6999 | 792.012 | 2.391
313.15 K, x2 = 0.7993 | 792.829 | 2.363
313.15 K, x2 = 0.8995 | 793.633 | 2.327
318.15 K, x2 = 0.101 | 782.93 | 2.236
318.15 K, x2 = 0.2029 | 783.806 | 2.234
318.15 K, x2 = 0.3008 | 784.646 | 2.219
318.15 K, x2 = 0.4 | 785.496 | 2.191
318.15 K, x2 = 0.5 | 786.344 | 2.158
318.15 K, x2 = 0.5999 | 787.188 | 2.129
318.15 K, x2 = 0.6999 | 788.027 | 2.111
318.15 K, x2 = 0.7993 | 788.855 | 2.094
318.15 K, x2 = 0.8995 | 789.67 | 2.068
323.15 K, x2 = 0.101 | 778.816 | 1.964
323.15 K, x2 = 0.2029 | 779.704 | 1.958
323.15 K, x2 = 0.3008 | 780.558 | 1.951
323.15 K, x2 = 0.4 | 781.419 | 1.931
323.15 K, x2 = 0.5 | 782.279 | 1.91
323.15 K, x2 = 0.5999 | 783.136 | 1.89
323.15 K, x2 = 0.6999 | 783.985 | 1.877
323.15 K, x2 = 0.7993 | 784.825 | 1.864
323.15 K, x2 = 0.8995 | 785.654 | 1.843
328.15 K, x2 = 0.101 | 774.633 | 1.68
328.15 K, x2 = 0.2029 | 775.537 | 1.692
328.15 K, x2 = 0.3008 | 776.405 | 1.689
328.15 K, x2 = 0.4 | 777.281 | 1.684
328.15 K, x2 = 0.5 | 778.156 | 1.673
328.15 K, x2 = 0.5999 | 779.026 | 1.668
328.15 K, x2 = 0.6999 | 779.893 | 1.662
328.15 K, x2 = 0.7993 | 780.744 | 1.658
328.15 K, x2 = 0.8995 | 781.588 | 1.65
333.15 K, x2 = 0.101 | 770.368 | 1.507
333.15 K, x2 = 0.2029 | 771.292 | 1.523
333.15 K, x2 = 0.3008 | 772.177 | 1.52
333.15 K, x2 = 0.4 | 773.068 | 1.511
333.15 K, x2 = 0.5 | 773.961 | 1.499
333.15 K, x2 = 0.5999 | 774.846 | 1.489
333.15 K, x2 = 0.6999 | 775.732 | 1.488
333.15 K, x2 = 0.7993 | 776.596 | 1.484
333.15 K, x2 = 0.8995 | 777.457 | 1.48
338.15 K, x2 = 0.101 | 766.021 | 1.342
338.15 K, x2 = 0.2029 | 766.966 | 1.363
338.15 K, x2 = 0.3008 | 767.871 | 1.361
338.15 K, x2 = 0.4 | 768.778 | 1.357
338.15 K, x2 = 0.5 | 769.689 | 1.351
338.15 K, x2 = 0.5999 | 770.594 | 1.343
338.15 K, x2 = 0.6999 | 771.495 | 1.341
338.15 K, x2 = 0.7993 | 772.378 | 1.338
338.15 K, x2 = 0.8995 | 773.258 | 1.335
343.15 K, x2 = 0.101 | 761.578 | 1.204
343.15 K, x2 = 0.2029 | 762.548 | 1.226
343.15 K, x2 = 0.3008 | 763.474 | 1.23
343.15 K, x2 = 0.4 | 764.4 | 1.228
343.15 K, x2 = 0.5 | 765.333 | 1.225
343.15 K, x2 = 0.5999 | 766.26 | 1.218
343.15 K, x2 = 0.6999 | 767.182 | 1.215
343.15 K, x2 = 0.7993 | 768.085 | 1.213
343.15 K, x2 = 0.8995 | 768.986 | 1.211
